{
  "source": "patent US8742068B2",
  "about": "“Treatment and prevention of inflammatory diseases and autoimmune diseases” (Universiteit Utrecht Holding B.V., priority 2007, dated 2014)",
  "key": {"adjuvant arthritis": {"tested_on": "adjuvant arthritis", "details": "in vivo; cited from earlier work"}, "[1]": {"tested_on": "proteoglycan induced arthritis", "test": "Proteoglycan induced arthritis (PGIA), intranasal pre-treatment", "format": "in vivo, Balb/c mice", "details": "control pOva", "source_text": "The proteoglycan induced arthritis model (PGIA) is a murine model of rheumatoid arthritis and is described to be a T-cell dependent and antibody mediated model. In the model arthritis is induced by two times injection of human proteoglycan (hPG) in a synthetic adjuvant dimethyldioctadecylammonium (DDA), see Hanyecz A. et al., Achievement of a synergistic adjuvant effect on arthritis induction by activation of innate immunity and forcing the immune response toward the Th1 phenotype. Arthritis Rheum. 2004 50(5):1665-76.\nBecause arthritis is induced by immunization with a synthetic adjuvant, instead of complete Freund's adjuvant (CFA), the role of interfering immune responses, induced by microbial Hsp's present in CFA, can be excluded. Due to cross reactive responses, between the human and the mouse (self) PG, a chronic and relapsing arthritis develops. After disease development, arthritis severity is scored by clinical assessment of thickness, redness and deformation of the joints on a scale of 1-4 per paw.\nTen female Balb/c mice, retired breeders obtained from Charles River, were randomly divided in two groups. To evaluate the effect of intra nasal treatment with Mycobacterial HSP70 (SEQ ID NO: 55) on PGIA 30 μg Hsp70 in 10 μl PBS was administered on day −7, −5 and −3 before disease induction. PGIA was induced by two times i.p. injection with 400 μg hPG and 2 mg DDA in 200 μl PBS. Subsequently developed arthritis scores were assessed by clinical evaluation as described in Example 7.\nFifteen female Balb/c mice, retired breeders obtained from Charles River, were randomly divided in three groups (five mice per group). To evaluate the effect of intranasal treatment with Hsp70-derived peptides “B1” (SEQ ID NO: 1) and a mixture of C1 (SEQ ID NO: 3) and mC1a (SEQ ID NO: 4) (designated herein as “C1mix”) on PGIA 100 μg peptide in 10 μl PBS was administered on day −7, −5 and −3 before disease induction. Ovalbumin peptide 323-339 (pOva) was used as a control peptide. PGIA was induced by two times i.p. injection with 400 μg hPG and 2 mg DDA in 200 μl PBS. Subsequently developed arthritis scores were assessed by clinical evaluation.\nTwelve female Balb/c mice, retired breeders obtained from Charles River, were randomly divided in two groups (six mice per group). To evaluate the effect of intra nasal treatment with Hsp70 derived mC1 a on PGIA 100 μg peptide in 10 μl PBS was administered on day −14, −11, −7 and −4 before disease induction. Ovalbumin peptide (pOva) was used as a control peptide. PGIA was induced by two times i.p. injection with 400 μg hPG and 2 mg DDA in 200 μl PBS. Subsequently developed arthritis scores were assessed by clinical evaluation.\nEighteen female Balb/c mice, retired breeders obtained from Charles River, were randomly divided in three groups (six mice per group). To evaluate the effect of intranasal (i.n.) treatment with Hsp70 derived peptides C1 and its mouse homologue mC1a on PGIA 100 μg peptide in 10 μl PBS was administered on day −7, −5 and −3 before disease induction (see FIG. 28). Ovalbumin peptide (pOva) was used as a control peptide. PGIA was induced by two times i.p. injection with 300 μg hPG and 2 mg DDA in 200 μl PBS. Subsequently developed arthritis scores were assessed by clinical evaluation. • Group A: (pOva): Treated with 100 μg pOva in 10 μl PBS intranasally • Group B (C1): Treated with 100 μg C1 in 10 μl PBS intranasally • Group C (mC1a): Treated with 100 μg mC1a in 10 μl PBS intranasally"}, "arthritis": {"tested_on": "arthritis", "details": "cited from earlier work"}, "[2]": {"tested_on": "primed spleen and draining lymph node cells", "test": "Peptide pool immunization, in vitro re-stimulation with individual peptides (T-cell proliferation, cytokine production, cross reactivity)", "format": "cell-based, Balb/c mice", "source_text": "To define the epitopes more precisely, we divided the 13 peptides, based on the degree of sequence identity between bacterial and the homologous mouse Hsp70s, in three pools (pool A: non-conserved peptides, pool B: conserved peptides comprising at least about 80% amino acid identity to the mouse homologue, and pool C: highly conserved peptides comprising >86% amino acid identity to the mouse homologue, see below) and immunized 10-12 weeks old Balb/c mice twice with a 2 week interval (intraperitoneally and subcutaneously) with the peptide pools. 10 days after the second immunization primed spleen and draining lymph node cells were re-stimulated in vitro with all the 13 individual peptides after which we measured T-cell proliferation (tritium incorporation), IFNγ, IL10, IL4 and IL5 production (cytokine production).\nCross reactivity was determined with the corresponding mouse homologue peptides."}, "[3]": {"tested_on": "PBMC isolated from the blood of healthy donors", "test": "Peptide-specific proliferation of human PBMC", "format": "cell-based", "details": "peptides at 20 μg/ml for 96 hours; compared to A5 control peptide", "source_text": "Peptide specific responses were studied in mononuclear cells obtained from the blood of healthy controls or the synovial fluid of a JIA and a RA patient. The patients were visiting the outpatient clinic of the departments of Rheumatology & Clinical Immunology and Pediatrics of the University Medical Center Utrecht (Utrecht, The Netherlands). The RA patient fulfilled diagnostic criteria of the American College of Rheumatology criteria for RA […]. Cells were isolated by ficoll (Pharmacia, Uppsala, Sweden) density gradient centrifugation of heparinized blood or synovial fluid and cultured in RPMI 1640 supplemented with 2 mmol/L glutamine, 100 U/ml penicillin and streptomycin (Gibco BRL, Gaithersburg, Md. USA) and 10% AB-positive heat-inactivated human serum (Sanquin Blood Bank, Utrecht, the Netherlands) in 96 wells round bottom plates (Nunc, Roskilde, Denmark) at 2*10^5 cells in 200 μl per well. Cultures were in triplicate stimulated with peptides at 20 μg/ml for 96 hours at 37° C. in 5% CO2 with 100% relative humidity. For determination of peptide-specific proliferation of PBMC, during the last 16 hours 1 μC1 (37 kBq) [^3H]-thymidine was added to each well and incorporation was measured. Data are expressed as stimulation index calculated as mean CPM of cells cultured with peptide divided by mean CPM of cells cultured without peptide."}, "[4]": {"tested_on": "synovial fluid mononuclear cells (SFMC)", "test": "Peptide-specific response of SFMC (intracellular staining and FACS)", "format": "cell-based, human", "details": "eight days culture with peptide, 6 hour restimulation", "experimental": "Peptide-specific response of SFMC was measured by intracellular staining and FACS analysis. Therefore, cells were cultured in the presence of the peptide as described for PBMC. After 96 hours 100 μl of the medium was replaced by fresh culture medium and 40 IU/ml IL-2 was added. At day eight, cells were spun down, medium was aspirated and 200 μl new medium with fresh irradiated APC of the same donor was added (7.5*10^5 irradiated at 3500 rad) During 6 hours cells were cultured with or without the peptides and addition of the costimulatory mAbs CD28 and CD49 (0.5 μg/ml each) at 37° C. In the last 4 hours Golgistop (BD Biosciences) was added. Harvested cells were washed and surface stained as described previously […] with anti-CD3-Peridinin-chlorophyll-protein Complex (PerCP), anti-CD4-allophycocyanin (APC) and anti-CD69-fluorescein isothiocyanate (FITC) and subsequently fixed in Cytofix/cytoperm solution (BD Biosciences) followed by intracellular staining with phycoerythrin (PE) conjugated mAbs against either IL-10, IFNγ or TNFα. All antibodies were obtained from Becton Dickinson. Data are expressed as % positive cells of the CD3^+CD4^+ population."}, "[5]": {"details": "Example 11: 100 μg intranasally on day −7, −5 and −3"}},
  "note": "Entries after “also recorded” stand apart in the source; their conditions may differ.",
  "data": [
    {"substance": "peptide 234-252: peptide 234-252 of Mycobacterial HSP70 (Tanaka et al. 1999) (LREAAEKAKIELSSSQSTS; UniProt P9WMJ9 234-252, looked up, fragment)", "values": [
      {"measurement": "IL-10 production", "setting": "adjuvant arthritis", "result": "induces IL-10 production"},
      {"measurement": "development of adjuvant arthritis", "setting": "adjuvant arthritis", "result": "suppresses the development of adjuvant arthritis"}
    ]},
    {"substance": "VLRVINEPTAAALAY (listed as Mus musculus) [mC1a, mouse Grp75 (hspa9a) peptide 216-230, mouse homologue of C1]", "values": [
      {"measurement": "disease activity (arthritis score)", "setting": "[1]; Example 10: 100 μg intranasally on day −14, −11, −7 and −4", "result": "suppressed disease activity"},
      {"measurement": "disease activity (arthritis score)", "setting": "[1]; [5]", "result": "significant reduction of disease activity"}
    ]},
    {"substance": "peptide 111-125: synthetic 15-mer peptide of mycobacterial HSP70, amino acids 111-125 (Wendling et al. 2000) (ITDAVITTPAYFNDA; UniProt P9WMJ9 111-125, looked up, fragment)", "values": [
      {"measurement": "arthritis", "setting": "arthritis; nasal administration", "result": "significant reduction of arthritis"},
      {"measurement": "arthritis development", "setting": "arthritis; parenteral pre-immunization", "result": "did not protect against arthritis development"}
    ]},
    {"substance": "KPFQSVIADTGISVS (listed as Mycobacterium tuberculosis) [A1, pool A (not conserved)]", "values": [
      {"measurement": "Cross-reactivity of bacterially primed T-cells with mouse homologue peptide", "setting": "[2]", "result": "no"}
    ]},
    {"substance": "amino acids 84-103: another peptide of Mycobacterial HSP70, amino acids 84-103 (Tanaka et al. 1999) (KKYTAPEISARILMKLKRDA; UniProt P9WMJ9 84-103, looked up, fragment)", "values": [
      {"measurement": "development of adjuvant arthritis", "setting": "adjuvant arthritis", "result": "does not suppress adjuvant arthritis development"}
    ]},
    {"substance": "VLRIINEPTAAAIAY (listed as Mus musculus) [mC1b, mouse hsp70 (hspa1a/hspa8) peptide, mouse homologue of C1]", "values": [
      {"measurement": "peptide-specific proliferation (stimulation index, [3H] thymidine incorporation)", "setting": "[3]", "result": "increased proliferation of PBMC; also recorded: significantly increased the proliferation"},
      {"measurement": "production of IL-10, IFNγ and TNFα in the CD3+CD4+ population", "setting": "[4]", "result": "increased the production of IL-10, IFNγ and TNFα"},
      {"measurement": "surface expression of CD69 in the CD3+CD4+ population", "setting": "[4]", "result": "increased"}
    ]},
    {"substance": "DEVVAVGAALQAGVL (listed as Mycobacterium tuberculosis) [B1, pool B (conserved)]", "values": [
      {"measurement": "Cross-reactivity of bacterially primed T-cells with mouse homologue peptide", "setting": "[2]", "result": "induced cross reactive T cell responses and yes"},
      {"measurement": "disease severity (arthritis score)", "setting": "[1]; Example 9: 100 μg intranasally on day −7, −5 and −3", "result": "reduction of disease severity"}
    ]},
    {"substance": "VLRIVNEPTAAALAY (listed as Mycobacterium tuberculosis) [C1]", "values": [
      {"measurement": "Cross-reactivity of bacterially primed T-cells with mouse homologue peptide", "setting": "[2]", "result": "induced cross reactive T cell responses and yes"},
      {"measurement": "disease activity (arthritis score)", "setting": "[1]; [5]", "result": "significant reduction of disease activity"},
      {"measurement": "production of IL-10, IFNγ and TNFα in the CD3+CD4+ population", "setting": "[4]", "result": "increased CD69 and cytokine expression"},
      {"measurement": "surface expression of CD69 in the CD3+CD4+ population", "setting": "[4]", "result": "increased CD69 and cytokine expression"}
    ]}
  ]
}
